# Laboratory results taken from patent publication US6960337B2, “Methods and compositions for treating benign gynecological disorders” (Balance Pharmaceuticals, Inc., priority 2002, dated 2005).
# Values joined by “and” are separate entries in the source; they are usually repeats but may differ in a detail not shown here. Identical values can stand only once. Like-named read-outs stand apart in the source and are kept apart here.
# What was measured:
# [1] = cited from earlier work
# [2] = tested on: heavy bleeding secondary to uterine leiomyomata; assay: Bleeding score from daily bleeding calendar (sum of 28 day diary entries; 0 no bleeding, 5 normal flow, 10 or greater menorrhagia), Example 2; format: in vivo, human
# Procedure: (§1) A 12 week study was performed to establish an effective dose of deslorelin for controlling heavy bleeding secondary to uterine leiomyomata. Forty-one women completed the study and are identified as Subject Nos. 1-41. The women were divided into test groups for treatment with intranasal deslorelin as follows:
# (§2) An intranasal preparation consisting of deslorelin at the indicated concentration along with sorbitol (61.6 mg/mL), benzalkonium chloride (0.1 mg/mL), and water was prepared according to the procedure of Example 1. The preparation was administered with a commercially available nasal sprayer that delivered a 50 μL spray volume. The preparation was administered by application of 50 μL to each nostril once per day, for a total daily spray volume of 100 μL to give the indicated dose of deslorelin.
# (§3) The average age of the premenopausal patients was 42.3, with similar distribution among groups. For one complete menstrual cycle prior to treatment, each woman completed a daily bleeding calendar. Eligible subjects were then treated with deslorelin at the assigned dosage once per day by intranasal application. During the 12 weeks of daily intranasal administration, each woman kept a daily bleeding calendar, completed quality of life questionnaires, and underwent clinical assessment and laboratory testing. The subjects were tracked for 6 weeks post-treatment for further assessment and to document time to recovery of menses after last drug treatment day. Clinical assessments included grading of nasal irritation (Table 3A), determination of uterine size (Table 3B), and serum hormone levels (Table 3C).
# [3] = tested on: ovarian estrogen and progesterone production; assay: Serum hormone levels, 12 week intranasal deslorelin study (Example 2); format: in vivo, human
# Procedure: Testosterone levels are also similar.
# as §1, §2, §3
# [4] = tested on: ovarian suppression (serum estradiol and progesterone levels); format: in vivo, human; conditions: for Hormone Levels: Progesterone: daily, individual subjects
# Procedure: Example 4 describes a study performed in support of the invention where the nasal preparation is similar to that of Example 1, comprised of a GnRH compound, estradiol, and testosterone, was administered to healthy, premenopausal women. Three doses of the GnRH compound deslorelin were tested, 0.5 mg, 1.0 mg, and 2.0 mg. The nasal preparation was administered using a conventional metered nasal spray delivery device. The subjects received two 50 μL sprays, one in each nostril, daily for four weeks. Blood samples were collected prior to drug administration on day 1 of the study, and then at regular intervals throughout day 1. Thereafter, blood samples were collected weekly, until day 29, when blood was collected at scheduled intervals throughout the day. Serum deslorelin, estradiol, testosterone, and progesterone were quantified, and the results are shown in Tables 4A through 4C, below in Example 4.
# Nine premenopausal women, ages 20 to 45 years, were recruited and randomly divided into three test groups for a 29 day study. […] The single intranasal administration consisted of a 100 μL dose delivered using a metered nasal spray device as two 50 μL sprays, one in each nostril.
# An indwelling intravenous catheter was inserted in an arm vein for withdrawal of blood samples prior to drug administration and at defined intervals post administration (study day 1) of 40, 120, 240, and 480 minutes. Thereafter, weekly blood samples (study days 8, 15, and 22) were collected for determination of serum estradiol, progesterone, testosterone, and deslorelin levels. On study day 29 post administration, blood samples were drawn according to the same regimen on study day 1. After collection, all blood samples were allowed to clot at room temperature, then refrigerated. Within 24 hours of collection, serum was separated and stored frozen at −5° C. until assayed.
# Serum levels of estradiol, testosterone, and progesterone were quantitated by sensitive and specific radioimmunoassay methods (Stanczyk, F. Z. et al., Am. J Obstet. Gynecol., 159(6):1540 (1988); Scott et al., Am. J Obstet. Gynecol., 130(7):817 (1978)). Prior to assay of the steroid hormones, serum was extracted with ethyl acetate:hexane (1:1) and for the testosterone assay further purified via Celite™ column chromatography, with 40% toluene to elute the testosterone. Procedural losses were followed by addition of 1000 dpm of the appropriate tritiated internal standard. The sensitivities of the estradiol, testosterone, and progesterone assays were 8 pg/mL, 4 ng/dL, and 10 ng/dL, respectively. […] Intra- and inter-assay coefficients of variation were 5% to 10% and 10% to 15%, respectively. Specificity of the assays was enhanced by eliminating interfering metabolites with extraction and/or chromatography and through the use of highly specific antisera.
# [5] = tested on: premenopausal women with uterine leiomyomata; assay: Uterine size (uterine volume calculated from ultrasound dimensions), Example 2; format: in vivo, human
# Procedure: as §1, §2, §3
# [6] = 0.5 mg/day intranasal, Baseline
# [7] = 0.5 mg/day intranasal, End of Week 4
# [8] = 0.5 mg/day intranasal, End of Week 8
# [9] = 0.5 mg/day intranasal, End of Week 12
# [10] = 1 mg/day intranasal, End of Week 4
# [11] = 1 mg/day intranasal, End of Week 8
# [12] = 1 mg/day intranasal, End of Week 12
# [13] = 2 mg/day intranasal, End of Week 4
# [14] = 2 mg/day intranasal, End of Week 8
# [15] = 2 mg/day intranasal, End of Week 12
# [16] = 0.5-2.0 mg daily intranasal over the 12 week period
compound,measurement,setting,value
OC[C@H]1O[C@@H]2O[C@H]3[C@H](O)[C@@H](O)[C@@H](O[C@H]4[C@H](O)[C@@H](O)[C@@H](O[C@H]5[C@H](O)[C@@H](O)[C@@H](O[C@H]6[C@H](O)[C@@H](O)[C@@H](O[C@H]7[C@H](O)[C@@H](O)[C@@H](O[C@H]8[C@H](O)[C@@H](O)[C@@H](O[C@H]9[C@H](O)[C@@H](O)[C@@H](O[C@H]%10[C@H](O)[C@@H](O)[C@@H](O[C@H]1[C@H](O)[C@H]2O)O[C@@H]%10CO)O[C@@H]9CO)O[C@@H]8CO)O[C@@H]7CO)O[C@@H]6CO)O[C@@H]5CO)O[C@@H]4CO)O[C@@H]3CO [δ-cyclodextrin],"water solubility (at 25° C., g/100 mL)",[1],8.19 g/100 mL
"CCNC(=O)[C@@H]1CCCN1C(=O)[C@H](CCCN=C(N)N)NC(=O)[C@H](CC(C)C)NC(=O)[C@@H](Cc1c[nH]c2ccccc12)NC(=O)[C@H](Cc1ccc(O)cc1)NC(=O)[C@H](CO)NC(=O)[C@H](Cc1c[nH]c2ccccc12)NC(=O)[C@H](Cc1cnc[nH]1)NC(=O)[C@@H]1CCC(=O)N1 [deslorelin, (pyro)Pro-His-Trp-Ser-Tyr-DTrp-Leu-Arg-Pro-ethylamide]",Bleeding Score,"[2]; 0.5 mg/day intranasal, Baseline Score",10.9
same,Bleeding Score,"[2]; 0.5 mg/day intranasal, Weeks 1-4",6.6
same,Bleeding Score,"[2]; 0.5 mg/day intranasal, Weeks 5-8",3.5
same,Bleeding Score,"[2]; 0.5 mg/day intranasal, Weeks 9-12",2.6
same,Bleeding Score,"[2]; 1 mg/day intranasal, Baseline Score",10.8
same,Bleeding Score,"[2]; 1 mg/day intranasal, Weeks 1-4",7.8
same,Bleeding Score,"[2]; 1 mg/day intranasal, Weeks 5-8",0.4
same,Bleeding Score,"[2]; 1 mg/day intranasal, Weeks 9-12",1.7
same,Bleeding Score,"[2]; 2 mg/day intranasal, Baseline Score",14.1
same,Bleeding Score,"[2]; 2 mg/day intranasal, Weeks 1-4",6.6
same,Bleeding Score,"[2]; 2 mg/day intranasal, Weeks 5-8",1.2
same,Bleeding Score,"[2]; 2 mg/day intranasal, Weeks 9-12",0.6
same,"effectiveness (reduction of bleeding and uterine size), in words","[2]; all tested doses (0.5, 1.0, 2.0 mg)",partially or completely effective
same,bleeding score (summary in words),[2]; end of the three month study,marked improvement
same,Hormone Levels: Estradiol,[3]; [6],173 pg/mL
same,Hormone Levels: Progesterone,[3]; [6],641 ng/dL
same,Hormone Levels: Testosterone,[3]; [6],24 ng/dL
same,Hormone Levels: Estradiol,[3]; [7],47 pg/mL
same,Hormone Levels: Progesterone,[3]; [7],40 ng/dL
same,Hormone Levels: Testosterone,[3]; [7],19 ng/dL
same,Hormone Levels: Estradiol,[3]; [8],79 pg/mL
same,Hormone Levels: Progesterone,[3]; [8],30 ng/dL
same,Hormone Levels: Testosterone,[3]; [8],22 ng/dL
same,Hormone Levels: Estradiol,[3]; [9],66 pg/mL
same,Hormone Levels: Progesterone,[3]; [9],37 ng/dL
same,Hormone Levels: Testosterone,[3]; [9],23 ng/dL
same,Hormone Levels: Estradiol,"[3]; 1 mg/day intranasal, Baseline",123 pg/mL
same,Hormone Levels: Progesterone,"[3]; 1 mg/day intranasal, Baseline",480 ng/dL
same,Hormone Levels: Testosterone,"[3]; 1 mg/day intranasal, Baseline",26 ng/dL
same,Hormone Levels: Estradiol,[3]; [10],51 pg/mL
same,Hormone Levels: Progesterone,[3]; [10],12 ng/dL
same,Hormone Levels: Testosterone,[3]; [10],22 ng/dL
same,Hormone Levels: Estradiol,[3]; [11],95 pg/mL
same,Hormone Levels: Progesterone,[3]; [11],25 ng/dL
same,Hormone Levels: Testosterone,[3]; [11],20 ng/dL
same,Hormone Levels: Estradiol,[3]; [12],30 pg/mL
same,Hormone Levels: Progesterone,[3]; [12],10 ng/dL
same,Hormone Levels: Testosterone,[3]; [12],16 ng/dL
same,Hormone Levels: Estradiol,"[3]; 2 mg/day intranasal, Baseline",184 pg/mL
same,Hormone Levels: Progesterone,"[3]; 2 mg/day intranasal, Baseline",337 ng/dL
same,Hormone Levels: Testosterone,"[3]; 2 mg/day intranasal, Baseline",34 ng/dL
same,Hormone Levels: Estradiol,[3]; [13],14 pg/mL
same,Hormone Levels: Progesterone,[3]; [13],12 ng/dL
same,Hormone Levels: Testosterone,[3]; [13],16 ng/dL
same,Hormone Levels: Estradiol,[3]; [14],31 pg/mL
same,Hormone Levels: Progesterone,[3]; [14],14 ng/dL
same,Hormone Levels: Testosterone,[3]; [14],20 ng/dL
same,Hormone Levels: Estradiol,[3]; [15],30 pg/mL
same,Hormone Levels: Progesterone,[3]; [15],13 ng/dL
same,Hormone Levels: Testosterone,[3]; [15],20 ng/dL
same,reduction in serum estradiol levels (summary in words),[3]; [16],progressive and dose dependent
same,serum progesterone levels (summary in words),[3]; [16],progressive suppression with higher dose and longer time
same,Hormone Levels: Progesterone,"[4]; 0.5 mg/mL Deslorelin nasal preparation with estradiol and testosterone, Study Day 1, 0 min",100 ng/dL and 90 ng/dL and 110 ng/dL
same,Hormone Levels: Progesterone,"[4]; 0.5 mg/mL Deslorelin nasal preparation with estradiol and testosterone, Study Day 8",90 ng/dL and 50 ng/dL and 110 ng/dL
same,Hormone Levels: Progesterone,"[4]; 0.5 mg/mL Deslorelin nasal preparation with estradiol and testosterone, Study Day 15",100 ng/dL and 40 ng/dL
same,Hormone Levels: Progesterone,"[4]; 0.5 mg/mL Deslorelin nasal preparation with estradiol and testosterone, Study Day 22",40 ng/dL (2×) and 50 ng/dL
same,Hormone Levels: Progesterone,"[4]; 0.5 mg/mL Deslorelin nasal preparation with estradiol and testosterone, Study Day 29, 0 min",100 ng/dL and 60 ng/dL and 70 ng/dL
same,Hormone Levels: Progesterone,"[4]; 1.0 mg/mL Deslorelin nasal preparation with estradiol and testosterone, Study Day 8",50 ng/dL (2×) and 80 ng/dL
same,Hormone Levels: Progesterone,"[4]; 1.0 mg/mL Deslorelin nasal preparation with estradiol and testosterone, Study Day 15",50 ng/dL and 30 ng/dL and 70 ng/dL
same,Hormone Levels: Progesterone,"[4]; 1.0 mg/mL Deslorelin nasal preparation with estradiol and testosterone, Study Day 22",50 ng/dL (2×) and 60 ng/dL
same,Hormone Levels: Progesterone,"[4]; 1.0 mg/mL Deslorelin nasal preparation with estradiol and testosterone, Study Day 29, 0 min",60 ng/dL and 40 ng/dL and 100 ng/dL
same,Hormone Levels: Progesterone,"[4]; 2.0 mg/mL Deslorelin nasal preparation with estradiol and testosterone, Study Day 1, 0 min",80 ng/dL and 30 ng/dL and 90 ng/dL
same,Hormone Levels: Progesterone,"[4]; 2.0 mg/mL Deslorelin nasal preparation with estradiol and testosterone, Study Day 8",50 ng/dL (2×) and 20 ng/dL
same,Progesterone levels during the treatment interval,"[4]; all three deslorelin doses, generally, indicating that women were anovulatory",less than 80 ng/dL
same,Serum levels of estradiol on day 29,[4]; in vivo,0.014 to 0.103 ng/mL
same,"Uterine Size, Mean Difference (end of week 12 minus baseline uterine volume)",[5]; 0.5 mg/day intranasal,−109.6 cm^3
same,"Uterine Size, Mean Difference (end of week 12 minus baseline uterine volume)",[5]; 1 mg/day intranasal,−63.6 cm^3
same,"Uterine Size, Mean Difference (end of week 12 minus baseline uterine volume)",[5]; 2 mg/day intranasal,−246.5 cm^3
same,uterine volume (summary in words),"[5]; 0.5, 1.0, 2.0 mg daily intranasal, 12 weeks, said to correlate directly with dose",reduction in uterine volume
